Earlier results as cited in patent publication US20080031860A1 (N.V. NUTRICIA, priority 2003, published 2008).

Columns and labels:
[1] = intake of 10-20 mg per day
[2] = after 4 weeks of therapy

Compound: calcium D-pantothenate
- reported adverse effect [1]: diarrhea

Compound: CCCCCc1cc(O)c2c(c1)OC(C)(C)[C@@H]1CCC(C)=C[C@@H]21 [dronabinol]
- appetite [2]: significantly stimulates appetite
